Source: patent publication US11129827B2 (priority 2017, dated 2021)
pIC50: −log10 of the molar value. Read-outs that look alike come from different tables or passages of the source.

What was measured:
FAAH [1] = target: FAAH (Homo sapiens (Human), UniProt O00519); test: biochemical; settings: for inhibition at 1 µM: read-out: FAAH (human) % inh. 1 μM
MAGL [2] = target: MAGL (Homo sapiens (Human), UniProt Q99685); test: biochemical; settings: for inhibition at 1 µM: read-out: MAGL (human) % inh. 1 μM
FAAH [3] = target: FAAH (Mus musculus (Mouse), UniProt O08914); test: in vivo; settings: po, read-out: FAAH (mouse) % inh. 5 mg/kg
MAGL [4] = target: MAGL (Mus musculus (Mouse), UniProt O35678); test: in vivo; settings: po, read-out: MAGL (mouse) % inh. 5 mg/kg

NC(=O)c1cncc(OC(=O)N2CCC3(CCN(Cc4cc(Cl)ccc4C(F)(F)F)C3)CC2)c1 [Example 4, 5-Carbamoylpyridin-3-yl 2-(5-chloro-2-(trifluoromethyl)benzyl)-2,8-diazaspiro[4.5]decane-8-carboxylate]
inhibition at 1 µM (FAAH [1]): > 75% | pIC50 (FAAH [1]; read-out: FAAH (human) IC50): > 7.00 | inhibition at 1 µM (MAGL [2]): > 75% | pIC50 (MAGL [2]; read-out: MAGL (human) IC50): > 7.00 | inhibition at 5 mg/kg (FAAH [3]): > 75% | inhibition at 5 mg/kg (MAGL [4]): > 75%

O=C(Oc1cncc(C(F)(F)F)c1)N1CCC2(CC1)CN(Cc1cccc(Oc3nc4ccccc4s3)c1)C2 [Example 7, 5-(Trifluoromethyl)pyridin-3-yl 2-(3-(benzo[d]thiazol-2-yloxy)benzyl)-2,7-diazaspiro[3.5]nonane-7-carboxylate]
inhibition at 1 µM (FAAH [1]): > 75% | pIC50 (FAAH [1]; read-out: FAAH (human) IC50): > 7.00 | inhibition at 1 µM (MAGL [2]): > 75% | pIC50 (MAGL [2]; read-out: MAGL (human) IC50): > 7.00 | inhibition at 5 mg/kg (FAAH [3]): > 75% | inhibition at 5 mg/kg (MAGL [4]): 25 to 50%

CC(C)Oc1cc(CN2CCN(C(=O)Oc3cncc(NS(C)(=O)=O)c3)CC2)ccc1Cl [Example 15, 5-(Methylsulfonamido)pyridin-3-yl 4-(4-chloro-3-isopropoxybenzyl)piperazine-1-carboxylate]
pIC50 (FAAH [1]): > 7.00 | inhibition at 1 µM (FAAH [1]): > 75% | inhibition at 1 µM (MAGL [2]): > 75% | pIC50 (MAGL [2]; read-out: MAGL (human) IC50): 6.00 to 7.00 | inhibition at 5 mg/kg (FAAH [3]): 0 to 25% | inhibition at 5 mg/kg (MAGL [4]): 0 to 25%

CC(C)Oc1ccc(CN2CCN(C(=O)Oc3cncc(C(N)=O)c3)CC2)c(OC(F)(F)F)c1 [Example 18, 5-Carbamoylpyridin-3-yl 4-(4-isopropoxy-2-(trifluoromethoxy)benzyl)piperazine-1-carboxylate]
inhibition at 1 µM (FAAH [1]): > 75% | pIC50 (FAAH [1]; read-out: FAAH (human) IC50): 6.00 to 7.00 | inhibition at 1 µM (MAGL [2]): > 75% | pIC50 (MAGL [2]; read-out: MAGL (human) IC50): 6.00 to 7.00 | inhibition at 5 mg/kg (FAAH [3]): > 75% | inhibition at 5 mg/kg (MAGL [4]): > 75%

C[C@@H]1CN(Cc2cc(F)cc(C(F)(F)F)c2)CCN1C(=O)Oc1cncc(C(N)=O)c1 [Example 20, 5-Carbamoylpyridin-3-yl (R)-4-(3-fluoro-5-(trifluoromethyl)benzyl)-2-methylpiperazine-1-carboxylate]
inhibition at 1 µM (FAAH [1]): > 75% | pIC50 (FAAH [1]; read-out: FAAH (human) IC50): > 7.00 | inhibition at 1 µM (MAGL [2]): > 75% | pIC50 (MAGL [2]; read-out: MAGL (human) IC50): > 7.00 | inhibition at 5 mg/kg (FAAH [3]): > 75% | inhibition at 5 mg/kg (MAGL [4]): > 75%

NC(=O)c1cncc(OC(=O)N2CCC3(CCN(Cc4ccc(Cl)c(Cl)c4)C3)CC2)c1 [Example 36, 5-Carbamoylpyridin-3-yl 2-(3,4-dichlorobenzyl)-2,8-diazaspiro[4.5]decane-8-carboxylate]
inhibition at 1 µM (FAAH [1]): > 75% | pIC50 (FAAH [1]; read-out: FAAH (human) IC50): > 7.00 | inhibition at 1 µM (MAGL [2]): > 75% | pIC50 (MAGL [2]; read-out: MAGL (human) IC50): > 7.00 | inhibition at 5 mg/kg (FAAH [3]): > 75% | inhibition at 5 mg/kg (MAGL [4]): 25 to 50%

O=C(Oc1cncc(C(F)(F)F)c1)N1CCC2(CC1)CN(Cc1cccc(Oc3cncc(C(F)(F)F)c3)c1)C2 [Example 38, 5-(Trifluoromethyl)pyridin-3-yl 2-(3-((5-(trifluoromethyl)pyridin-3-yl)oxy)benzyl)-2,7-diazaspiro[3.5]nonane-7-carboxylate]
inhibition at 1 µM (FAAH [1]): > 75% | pIC50 (FAAH [1]; read-out: FAAH (human) IC50): > 7.00 | inhibition at 1 µM (MAGL [2]): > 75% | pIC50 (MAGL [2]; read-out: MAGL (human) IC50): > 7.00 | inhibition at 5 mg/kg (FAAH [3]): > 75% | inhibition at 5 mg/kg (MAGL [4]): 0 to 25%

N#Cc1cncc(OC(=O)N2CCN(Cc3cccc(Oc4ncccn4)c3)CC2)c1 [Example 50, 5-Cyanopyridin-3-yl 4-(3-(pyrimidin-2-yloxy)benzyl)piperazine-1-carboxylate]
inhibition at 1 µM (FAAH [1]): > 75% | pIC50 (FAAH [1]; read-out: FAAH (human) IC50): 6.00 to 7.00 | pIC50 (MAGL [2]): > 7.00 | inhibition at 1 µM (MAGL [2]): > 75%

CC(=O)Nc1cncc(OC(=O)N2CCN(Cc3ccc(Cl)c(OC(C)C)c3)CC2)c1 [Example 52, 5-Acetamidopyridin-3-yl 4-(4-chloro-3-isopropoxybenzyl)pipera-zine-1-carboxylate]
inhibition at 1 µM (FAAH [1]): > 75% | pIC50 (FAAH [1]; read-out: FAAH (human) IC50): 6.00 to 7.00 | pIC50 (MAGL [2]): > 7.00 | inhibition at 1 µM (MAGL [2]): > 75% | inhibition at 5 mg/kg (FAAH [3]): > 75% | inhibition at 5 mg/kg (MAGL [4]): 0 to 25%

CC(C)Oc1cc(CN2CCN(C(=O)Oc3cncc(C(N)=O)c3)[C@H](C)C2)ccc1Cl [Example 56, (R)-5-Carbamoylpyridin-3-yl 4-(4-chloro-3-isopropoxybenzyl)-2-methylpiperazine-1-carboxylate]
inhibition at 1 µM (FAAH [1]): > 75% | pIC50 (FAAH [1]; read-out: FAAH (human) IC50): 6.00 to 7.00 | inhibition at 1 µM (MAGL [2]): > 75% | pIC50 (MAGL [2]; read-out: MAGL (human) IC50): 6.00 to 7.00

Cc1c(CN2CCN(C(=O)Oc3cncc(C(N)=O)c3)[C@H](C)C2)cccc1C(F)(F)F [Example 58, (R)-5-Carbamoylpyridin-3-yl 2-methyl-4-(2-methyl-3-(trifluoromethyl)benzyl)piperazine-1-carboxylate]
pIC50 (FAAH [1]): > 7.00 | inhibition at 1 µM (FAAH [1]): > 75% | inhibition at 1 µM (MAGL [2]): > 75% | pIC50 (MAGL [2]; read-out: MAGL (human) IC50): 6.00 to 7.00

Cc1c(CN2CCN(C(=O)Oc3cncc(C(N)=O)c3)[C@@H](C)C2)cccc1C(F)(F)F [Example 59, (S)-5-Carbamoylpyridin-3-yl 2-methyl-4-(2-methyl-3-(trifluoromethyl)benzyl)piperazine-1-carboxylate]
inhibition at 1 µM (FAAH [1]): 50 to 75% | inhibition at 1 µM (MAGL [2]): > 75%

C[C@@H]1CN(Cc2cc(Cl)cc(C(F)(F)F)c2)CCN1C(=O)Oc1cncc(C(N)=O)c1 [Example 65, (R)-5-Carbamoylpyridin-3-yl 4-(3-chloro-5-(trifluoromethyl)benzyl)-2-methylpiperazine-1-carboxylate]
inhibition at 1 µM (FAAH [1]): > 75% | pIC50 (FAAH [1]; read-out: FAAH (human) IC50): 6.00 to 7.00 | inhibition at 1 µM (MAGL [2]): > 75% | pIC50 (MAGL [2]; read-out: MAGL (human) IC50): 6.00 to 7.00 | inhibition at 5 mg/kg (FAAH [3]): > 75% | inhibition at 5 mg/kg (MAGL [4]): > 75%

C[C@@H]1CN(Cc2cccc(C(F)(F)F)c2Cl)CCN1C(=O)Oc1cncc(C(N)=O)c1 [Example 66, (R)-5-Carbamoylpyridin-3-yl 4-(2-chloro-3-(trifluoromethyl)benzyl)-2-methylpiperazine-1-carboxylate]
inhibition at 1 µM (FAAH [1]): > 75% | pIC50 (FAAH [1]; read-out: FAAH (human) IC50): > 7.00 | inhibition at 1 µM (MAGL [2]): > 75% | pIC50 (MAGL [2]; read-out: MAGL (human) IC50): > 7.00

C[C@@H]1CN(Cc2cccc(OC(F)(F)F)c2)CCN1C(=O)Oc1cncc(C(N)=O)c1 [Example 74, (R)-5-Carbamoylpyridin-3-yl 2-methyl-4-(3-(trifluoromethoxy)benzyl)piperazine-1-carboxylate]
pIC50 (FAAH [1]): > 7.00 | inhibition at 1 µM (FAAH [1]): > 75% | inhibition at 1 µM (MAGL [2]): 25 to 50% | pIC50 (MAGL [2]; read-out: MAGL (human) IC50): 6.00 to 7.00 | inhibition at 5 mg/kg (FAAH [3]): > 75% | inhibition at 5 mg/kg (MAGL [4]): > 75%

Cc1c(OC(=O)N2CCN(Cc3cccc(C(F)(F)F)c3C)C[C@H]2C)cncc1C(N)=O [Example 82, 5-Carbamoyl-4-methylpyridin-3-yl (R)-2-methyl-4-(2-methyl-3-(trifluoromethyl)benzyl)piperazine-1-carboxylate]
inhibition at 1 µM (FAAH [1]): > 75% | inhibition at 1 µM (MAGL [2]): 0 to 25%

Cc1c(C#N)cncc1OC(=O)N1CCN(Cc2cccc(C(F)(F)F)c2C)C[C@H]1C [Example 83, 5-Cyano-4-methylpyridin-3-yl (R)-2-methyl-4-(2-methyl-3-(trifluoromethyl)benzyl)piperazine-1-carboxylate]
pIC50 (FAAH [1]): > 7.00 | inhibition at 1 µM (FAAH [1]): > 75% | inhibition at 1 µM (MAGL [2]): > 75% | pIC50 (MAGL [2]; read-out: MAGL (human) IC50): 6.00 to 7.00

C[C@@H]1CN(Cc2cccc(Oc3ncccn3)c2)CCN1C(=O)Oc1cncc(C#N)c1 [Example 84, 5-Cyanopyridin-3-yl (R)-2-methyl-4-(3-(pyrimidin-2-yloxy)benzyl)piperazine-1-carboxylate]
inhibition at 1 µM (FAAH [1]): > 75% | pIC50 (FAAH [1]; read-out: FAAH (human) IC50): 6.00 to 7.00 | pIC50 (MAGL [2]): > 7.00 | inhibition at 1 µM (MAGL [2]): > 75%

C[C@@H]1CN(Cc2cc(Cl)cc(Oc3ncccn3)c2)CCN1C(=O)Oc1cncc(C#N)c1 [Example 86, 5-Cyanopyridin-3-yl (R)-4-(3-chloro-5-(pyrimidin-2-yloxy)benzyl)-2-methylpiperazine-1-carboxylate]
pIC50 (FAAH [1]): > 7.00 | inhibition at 1 µM (FAAH [1]): > 75% | pIC50 (MAGL [2]): 6.00 to 7.00 | inhibition at 1 µM (MAGL [2]): > 75% | inhibition at 5 mg/kg (FAAH [3]): > 75% | inhibition at 5 mg/kg (MAGL [4]): > 75%
